Data published in ChEMBL document CHEMBL5625239, “Synthesis of 1,3,5-triphenyl-1,2,4-triazole derivatives and their neuroprotection by anti-oxidative stress and anti-inflammation and protecting BBB” (Eur J Med Chem, 2023).
The source made the active and inactive calls. The rule behind the calls is not given here.

Tests used:
PC-12 [1] = test: Protection against SNP-induced cell damage in rat PC-12 cells assessed as reduction in apoptosis by measuring normal nuclear staining at 10 uM preincubated with compound for 2 hrs followed by SNP addition and measured after 24 hrs by confocal laser microscopic analysis; assay type: functional, cell-based; details: time 26.0 hrs
PC-12 [2] = test: Protection against SNP-induced cell damage in rat PC-12 cells assessed as reduction in apoptosis by measuring decrease in cell count at 10 uM preincubated with compound for 2 hrs followed by SNP addition and measured after 24 hrs by confocal laser microscopic analysis; assay type: functional, cell-based; details: time 26.0 hrs
Rattus norvegicus [3] = test: Neuroprotective activity against middle cerebral artery occlusion induced ischemia stroke Sprague-Dawley rat model assessed as cerebral infarction area at 10 mg/kg, ip measured after 24 hrs by TTC staining based imaging analysis (reference value: 20.08 +/- 5.70); assay type: functional
RAW264.7 [4] = test: Cytotoxicity against mouse RAW264.7 cells assessed as reduction in cell viability at 5 uM incubated for 24 hrs by MTT assay; assay type: toxicity, cell-based; details: raw264.7, 24 h
RAW264.7 [5] = test: Anti-inflammatory activity in LPS-induced mouse RAW264.7 cells assessed as decrease in iNOS expression preincubated with compound for 1 hrs followed by LPS stimulation and measured after 24 hrs by Western blot analysis; assay type: functional, cell-based; details: dose 1.25-5 µM, time 25.0 hrs
Rattus norvegicus [6] = test: Neuroprotective activity against middle cerebral artery occlusion induced ischemia stroke Sprague-Dawley rat model assessed as reduction in TNF-alpha level in serum at 20 mg/kg, ip measured after 24 hrs by ELISA; assay type: functional, organism-based
Rattus norvegicus [7] = test: Neuroprotective activity against middle cerebral artery occlusion induced ischemia stroke Sprague-Dawley rat model assessed as reduction in glycocalyx degradation by measuring decrease in serum heparan sulfate level at 5 to 20 mg/kg, ip measured after 24 hrs by ELISA; assay type: functional, organism-based; details: dose 5-20 mg/kg
Rattus norvegicus [8] = test: Neuroprotective activity against middle cerebral artery occlusion induced ischemia stroke Sprague-Dawley rat model assessed as reduction in glycocalyx degradation by measuring decrease in serum syndecan-1 level at 5 to 20 mg/kg, ip measured after 24 hrs by ELISA; assay type: functional, organism-based; details: dose 5-20 mg/kg
[9] = Acute toxicity in ip dosed mouse assessed as lethal dose; assay type: organism-based; details: in vivo
Rattus norvegicus [10] = test: Neuroprotective activity against middle cerebral artery occlusion induced ischemia stroke Sprague-Dawley rat model assessed as neurological severity score at 10 mg/kg, ip measured after 24 hrs by behavioral test (reference value: 10.50 +/- 2.72); assay type: functional
Rattus norvegicus [11] = test: Neuroprotective activity against middle cerebral artery occlusion induced ischemia stroke Sprague-Dawley rat model assessed as increase in SOD level in serum at 20 mg/kg, ip measured after 24 hrs by ELISA; assay type: functional, organism-based
Rattus norvegicus [12] = test: Neuroprotective activity against middle cerebral artery occlusion induced ischemia stroke Sprague-Dawley rat model assessed as reduction in glycocalyx degradation by measuring decrease in serum hyaluronic acid level administered intraperitoneally and measured after 24 hrs by ELISA; assay type: functional, organism-based; details: dose 5-20 mg/kg, route ip
Rattus norvegicus [13] = test: Neuroprotective activity against middle cerebral artery occlusion induced ischemia stroke Sprague-Dawley rat model assessed as cerebral infarction area at 5 mg/kg, ip measured after 24 hrs by TTC staining based imaging analysis (reference value: 20.08 +/- 5.70); assay type: functional
PC-12 [14] = test: Protection against SNP-induced cell damage in rat PC-12 cells assessed as inhibition of ROS accumulation by measuring reduction in green fluorescence intensity at 10 uM preincubated with compound for 2 hrs followed by SNP addition and measured after 24 hrs by laser confocal microscopic analysis; assay type: functional, cell-based; details: time 26.0 hrs
PC-12 [15] = test: Neuroprotective activity against SNP-induced cell damage in rat PC-12 cells pretreated with compound for 2 hrs followed by SNP addition and measured after 24 hrs by MTT assay; assay type: functional, cell-based; details: dose 2.5-100 µM, time 26.0 hrs
Rattus norvegicus [16] = test: Neuroprotective activity against middle cerebral artery occlusion induced ischemia stroke Sprague-Dawley rat model assessed as reduction in MDA level in serum at 20 mg/kg, ip measured after 24 hrs by ELISA; assay type: functional, organism-based
[17] = Acute toxicity in mouse assessed as mortality at 1000 mg/kg, ip; assay type: organism-based; details: in vivo
[18] = Acute toxicity in mouse assessed as effect on behavior at 1000 mg/kg, ip; assay type: organism-based; details: in vivo
Rattus norvegicus [19] = test: Neuroprotective activity against middle cerebral artery occlusion induced ischemia stroke Sprague-Dawley rat model assessed as reduction in serum MMP-9 level administered intraperitoneally and measured after 24 hrs by ELISA; assay type: functional, organism-based; details: dose 5-20 mg/kg, route ip
Rattus norvegicus [20] = test: Neuroprotective activity against middle cerebral artery occlusion induced ischemia stroke Sprague-Dawley rat model assessed as neurological severity score at 5 mg/kg, ip measured after 24 hrs by behavioral test (reference value: 10.50 +/- 2.72); assay type: functional
Rattus norvegicus [21] = test: Neuroprotective activity against middle cerebral artery occlusion induced ischemia stroke Sprague-Dawley rat model assessed as cerebral infarction area at 20 mg/kg, ip measured after 24 hrs by TTC staining based imaging analysis (reference value: 20.08 +/- 5.70); assay type: functional
Rattus norvegicus [22] = test: Neuroprotective activity against middle cerebral artery occlusion induced ischemia stroke Sprague-Dawley rat model assessed as neurological severity score at 20 mg/kg, ip measured after 24 hrs by behavioral test (reference value: 10.50 +/- 2.72); assay type: functional
[23] = target: Voltage-gated inwardly rectifying potassium channel KCNH2 (Homo sapiens, UniProt Q12809); test: Inhibition of hERG in HEK293 cells by whole-cell patch clamp electrophysiological recording; assay type: toxicity, cell-based
Rattus norvegicus [24] = test: Neuroprotective activity against middle cerebral artery occlusion induced ischemia stroke Sprague-Dawley rat model assessed as reduction in IL-1beta level in serum at 20 mg/kg, ip measured after 24 hrs by ELISA; assay type: functional, organism-based
PC-12 [25] = test: Protection against SNP-induced cell damage in rat PC-12 cells assessed as reduction in apoptosis by measuring decrease in bright-blue nuclei at 10 uM preincubated with compound for 2 hrs followed by SNP addition and measured after 24 hrs by confocal laser microscopic analysis; assay type: functional, cell-based; details: time 26.0 hrs
RAW264.7 [26] = test: Anti-inflammatory activity in LPS-induced mouse RAW264.7 cells assessed as decrease in COX-2 expression preincubated with compound for 1 hrs followed by LPS stimulation and measured after 24 hrs by Western blot analysis; assay type: functional, cell-based; details: dose 1.25-5 µM, time 25.0 hrs
RAW264.7 [27] = test: Anti-inflammatory activity in LPS-induced mouse RAW264.7 cells assessed as reduction in PGE2 level preincubated with compound for 1 hrs followed by LPS stimulation and measured after 24 hrs by ELISA; assay type: functional, cell-based; details: time 25.0 hrs
RAW264.7 [28] = test: Anti-inflammatory activity in mouse RAW264.7 cells assessed as inhibition of LPS-induced NO production preincubated with compound for 1 hrs followed by LPS stimulation and measured after 24 hrs; assay type: functional, cell-based; details: time 25.0 hrs
PC-12 [29] = test: Protection against SNP-induced cell damage in rat PC-12 cells at 10 uM pretreated with compound for 2 hrs followed by SNP addition and measured after 24 hrs by MTT assay; assay type: functional, cell-based; details: time 26.0 hrs
[30] = target: Kelch-like ECH-associated protein 1 (Homo sapiens, UniProt Q14145); test: Binding affinity to CM5 chip immobilized KEAP1 Kelch domain (unknown origin) assessed as dissociation equilibrium constant by SPR analysis
[31] = target: T1, Prostaglandin G/H synthase 1 (Ovis aries, UniProt P05979); test: Inhibition of ovine COX-1 using arachidonic acid as substrate preincubated with compound for 5 mins followed by substrate addition and measured after 2 mins by enzyme immunoassay
T1 sequence (P05979 whole entry): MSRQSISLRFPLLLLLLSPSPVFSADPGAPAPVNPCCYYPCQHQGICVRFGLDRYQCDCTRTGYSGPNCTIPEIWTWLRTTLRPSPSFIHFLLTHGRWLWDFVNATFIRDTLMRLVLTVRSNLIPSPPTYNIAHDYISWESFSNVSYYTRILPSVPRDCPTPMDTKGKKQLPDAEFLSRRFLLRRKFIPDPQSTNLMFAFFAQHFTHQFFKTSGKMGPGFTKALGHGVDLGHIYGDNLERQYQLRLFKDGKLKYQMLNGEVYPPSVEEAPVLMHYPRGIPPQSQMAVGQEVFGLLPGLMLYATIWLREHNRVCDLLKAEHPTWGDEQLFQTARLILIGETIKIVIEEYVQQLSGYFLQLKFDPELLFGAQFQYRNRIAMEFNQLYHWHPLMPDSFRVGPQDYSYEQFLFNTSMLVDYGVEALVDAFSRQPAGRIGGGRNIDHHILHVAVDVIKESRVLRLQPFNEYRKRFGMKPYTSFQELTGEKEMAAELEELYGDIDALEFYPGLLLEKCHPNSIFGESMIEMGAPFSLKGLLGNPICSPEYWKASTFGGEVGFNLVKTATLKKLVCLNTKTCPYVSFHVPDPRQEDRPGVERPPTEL

Chain of Kelch-like ECH-associated protein 1 (Q14145 whole entry, the tested form may be a part): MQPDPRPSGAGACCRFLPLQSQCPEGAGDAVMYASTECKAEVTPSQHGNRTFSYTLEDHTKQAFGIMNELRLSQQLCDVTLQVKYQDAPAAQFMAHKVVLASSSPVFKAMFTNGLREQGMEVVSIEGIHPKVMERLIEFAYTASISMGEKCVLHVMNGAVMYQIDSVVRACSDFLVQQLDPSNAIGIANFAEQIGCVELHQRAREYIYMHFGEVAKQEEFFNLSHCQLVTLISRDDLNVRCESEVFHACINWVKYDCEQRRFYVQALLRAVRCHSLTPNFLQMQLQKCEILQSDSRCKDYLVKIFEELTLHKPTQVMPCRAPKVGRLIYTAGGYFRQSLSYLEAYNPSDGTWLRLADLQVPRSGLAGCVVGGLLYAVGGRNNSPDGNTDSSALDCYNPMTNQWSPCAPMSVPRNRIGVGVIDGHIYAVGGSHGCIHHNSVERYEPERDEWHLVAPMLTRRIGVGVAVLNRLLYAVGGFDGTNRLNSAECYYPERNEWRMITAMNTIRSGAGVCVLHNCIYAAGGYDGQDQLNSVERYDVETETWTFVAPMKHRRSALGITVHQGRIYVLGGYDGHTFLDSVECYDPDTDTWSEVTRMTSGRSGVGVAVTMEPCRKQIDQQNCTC
Chain of Voltage-gated inwardly rectifying potassium channel KCNH2 (Q12809 whole entry): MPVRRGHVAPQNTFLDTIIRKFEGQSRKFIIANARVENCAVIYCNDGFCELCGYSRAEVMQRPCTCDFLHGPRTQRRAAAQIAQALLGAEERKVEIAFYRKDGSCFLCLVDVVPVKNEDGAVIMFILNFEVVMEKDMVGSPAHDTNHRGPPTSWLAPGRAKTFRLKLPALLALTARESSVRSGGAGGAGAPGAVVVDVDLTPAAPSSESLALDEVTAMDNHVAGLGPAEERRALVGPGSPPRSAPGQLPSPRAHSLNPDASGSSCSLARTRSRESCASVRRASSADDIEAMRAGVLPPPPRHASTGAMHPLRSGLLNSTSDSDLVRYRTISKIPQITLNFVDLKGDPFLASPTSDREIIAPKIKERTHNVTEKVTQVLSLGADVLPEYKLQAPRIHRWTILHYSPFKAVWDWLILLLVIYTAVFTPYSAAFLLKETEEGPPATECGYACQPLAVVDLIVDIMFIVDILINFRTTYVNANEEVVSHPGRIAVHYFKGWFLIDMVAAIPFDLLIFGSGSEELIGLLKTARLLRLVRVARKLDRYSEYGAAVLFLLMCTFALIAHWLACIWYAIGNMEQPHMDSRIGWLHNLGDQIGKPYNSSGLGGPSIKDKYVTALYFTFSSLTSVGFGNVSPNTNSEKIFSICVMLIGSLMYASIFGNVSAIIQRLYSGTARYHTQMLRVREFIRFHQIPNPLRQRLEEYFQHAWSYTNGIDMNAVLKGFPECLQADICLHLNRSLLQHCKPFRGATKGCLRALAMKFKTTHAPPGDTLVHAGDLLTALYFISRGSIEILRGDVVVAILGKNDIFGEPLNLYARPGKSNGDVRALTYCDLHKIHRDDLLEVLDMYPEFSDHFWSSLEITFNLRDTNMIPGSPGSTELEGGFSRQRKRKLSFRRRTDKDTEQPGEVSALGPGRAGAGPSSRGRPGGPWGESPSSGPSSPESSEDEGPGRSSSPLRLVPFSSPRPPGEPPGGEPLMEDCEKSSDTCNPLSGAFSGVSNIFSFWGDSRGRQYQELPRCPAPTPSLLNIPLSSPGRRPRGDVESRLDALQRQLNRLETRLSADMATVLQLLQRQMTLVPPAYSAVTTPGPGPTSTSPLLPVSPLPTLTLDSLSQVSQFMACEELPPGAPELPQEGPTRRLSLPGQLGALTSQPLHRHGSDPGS

Which Activity (PC-12 [1]) does the source give for NS(=O)(=O)c1ccc(-n2nc(-c3ccc(C(F)(F)F)cc3O)nc2-c2ccccc2O)cc1 here?
The Activity was “Active”.

What about the Activity (PC-12 [2]) of the same compound?
The Activity was “Active”.

What about the Activity (Rattus norvegicus [3]) of the same compound?
The Activity was 17.43.

What about the Activity (RAW264.7 [4]) of the same compound?
Its Activity is “Non-Toxic”.

What about the Activity (RAW264.7 [5]) of the same compound?
Its Activity is “Dose-Dependent Effect”.

What about the Activity (Rattus norvegicus [6]) of the same compound?
Its Activity is “Active”.

And the Activity (Rattus norvegicus [7])?
Its Activity is “Active”.

And the Activity (Rattus norvegicus [8])?
The Activity was “Active”.

And the LD50 [9]?
The LD50 was over 1000 mg/kg.

What about the Activity (Rattus norvegicus [10]) of the same compound?
Its Activity is 9.25.

And the Activity (Rattus norvegicus [11])?
Its Activity is “Active”.

And the Activity (Rattus norvegicus [12])?
The Activity was “Dose-Dependent Effect”.

What about the Activity (Rattus norvegicus [13]) of the same compound?
The Activity was 18.52.

What about the Activity (PC-12 [14]) of the same compound?
Its Activity is “Active”.

And the Activity (PC-12 [15])?
The Activity was “Dose-Dependent Effect”.

What about the Activity (Rattus norvegicus [16]) of the same compound?
Its Activity is “Active”.

What about the Activity [17] of the same compound?
The Activity was “Non-Toxic”.

And the Activity [18]?
Its Activity is “Non-Toxic”.

And the Activity (Rattus norvegicus [19])?
Its Activity is “Dose-Dependent Effect”.

And the Activity (Rattus norvegicus [20])?
The Activity was 9.2.

What about the Activity (Rattus norvegicus [21]) of the same compound?
The Activity was 15.61.

What about the Activity (Rattus norvegicus [22]) of the same compound?
Its Activity is 7.4.

And the IC50 [23]?
Its IC50 is over 30 µM.

What about the Activity (Rattus norvegicus [24]) of the same compound?
Its Activity is “Active”.

What about the Activity (PC-12 [25]) of the same compound?
Its Activity is “Active”.

What about the Activity (RAW264.7 [26]) of the same compound?
Its Activity is “Dose-Dependent Effect”.

And the Activity (RAW264.7 [27])?
Its Activity is “Active”.

What about the Activity (RAW264.7 [28]) of the same compound?
Its Activity is “Active”.

What about the Activity (PC-12 [29]) of the same compound?
Its Activity is “Active”.

And the Kd [30]?
The Kd was 16.5 µM.

What about the IC50 [31] of the same compound?
Its IC50 is 86.5 µM.
